In patent publication US6440440B1, “Biocidal benzylbiphenyl derivatives” (priority 1998, dated 2002):
Counter-ions that a name gives are not always drawn.

Legend:
Format in all cases: cell-based
Providencia rettgeri = assay: Poison plate assay, combinations with BAC; conditions: for Calculated activity: Limpel's formula
Protocol: Biocidal activity against bacterial/yeast growth was determined with the poison plate assay. To obtain the required concentrations of the test compound, calculated amounts of stock solutions (DMSO) were pipetted into multi-well plates. Tryptose agar (except for Rhodotorula: PDA) was added aseptically and uniform distribution was obtained by shaking. Each plate was inoculated with a bacterial/yeast suspension. After incubation at 27° C. and 70% relative humidity, for a period long enough to allow complete growth of controls, percentage activity as compared to the control was scored.
Possible synergy was investigated using Limpel's formula (Richter, D. L., Pestic. Sci. 1987, 19: 309-315): [formula]
where EC is the expected additive response, or calculated activity, X is the observed percentage control when compound A is applied alone and Y is the observed percentage control when compound B is applied alone. Synergy was considered to occur when the observed effect, or measured activity, of a combination of both compounds was greater than the corresponding EC value.
The table C.7 to C.8 below enumerate the measured and calculated activities of BAC and compounds 20, 42 and 40 when tested as a single test compound or as a combination against Providencia rettgeri. BAC (benzalconium chloride) is a well-bacteride and was tested at a concentration of 40 and 80 μmol. Compounds 20, 40 and 42 were tested at a concentration of 10, 20, 40, 80 and 160 μmol. When a synergistic effect was observed, the “measured” and “calculated” activity are indicated with a bold typeface.

Sporobolomyces roseus = assay: Screening against yeasts; parameters: key: 3 = complete inhibition of growth, 2 = growth partially controlled; conditions: test compound concentration 500 μmol
Protocol: (§1) The stock solutions with the test compounds were pipetted into multiwell plates and mixed with warm tryptose broth agar (2.6%) in order to reach a test compound concentration of 500 μMol. The medium was allowed to cool and subsequently inoculated with the bacteria. Wells were placed in an incubator at 27° C. and a relative humidity of 70%. After sufficient growth of the untreated cultures, the test was evaluated.
(§2) 3: complete inhibition of bacterial growth
(§3) 2: bacterial growth partially controlled
(§4) A number of compounds of formula (I) were also tested in a screening against certain The test conditions are the same as described in biological example C.1. The concentration of the test compound was also 500 μmol, and the scoring system used was also the same.
Sporobolomyces roseus (21)

Rhodotorula rubra = assay: Screening against yeasts; parameters: key: 3 = complete inhibition of growth, 2 = growth partially controlled; conditions: test compound concentration 500 μmol
Protocol: as §1, §2, §3, §4

Escherichia coli = assay: Primary bacteria screening; parameters: key: score: 3 = complete inhibition of growth, 2 = growth partially controlled; conditions: test compound concentration 500 μMol in tryptose broth agar, 27° C.
Protocol: as §1, §2, §3

Pseudomonas aeruginosa = assay: Primary bacteria screening; parameters: key: score: 3 = complete inhibition of growth, 2 = growth partially controlled; conditions: test compound concentration 500 μMol in tryptose broth agar, 27° C.
Protocol: as §1, §2, §3

Debaryomyces hansenii = assay: Screening against yeasts; parameters: key: 3 = complete inhibition of growth, 2 = growth partially controlled; conditions: test compound concentration 500 μM
Protocol: as §1, §2, §3, §4
Debaryomyces hansenii (19)

[1] = BAC 40 μmol + compound 160 μmol
[2] = BAC 80 μmol + compound 160 μmol
[3] = combination BAC 40 μmol + compound 10 μmol
[4] = combination BAC 40 μmol + compound 20 μmol
[5] = combination BAC 40 μmol + compound 40 μmol
[6] = combination BAC 40 μmol + compound 80 μmol
[7] = combination BAC 40 μmol + compound 160 μmol
[8] = combination BAC 80 μmol + compound 10 μmol
[9] = combination BAC 80 μmol + compound 20 μmol
[10] = combination BAC 80 μmol + compound 40 μmol
[11] = combination BAC 80 μmol + compound 80 μmol
[12] = combination BAC 80 μmol + compound 160 μmol

## Cl.Cl.NCCCNCCC(c1ccccc1)c1ccc(-c2ccccc2)cc1 (centres unmarked) [Co. No. 40]
Providencia rettgeri; BAC 40 μmol + compound 10 μmol
  Calculated activity: 50%
Providencia rettgeri; BAC 40 μmol + compound 20 μmol
  Calculated activity: 50%
Providencia rettgeri; BAC 40 μmol + compound 40 μmol
  Calculated activity: 95%
Providencia rettgeri; BAC 40 μmol + compound 80 μmol
  Calculated activity: 100%
Providencia rettgeri; [1]
  Calculated activity: 100%
Providencia rettgeri; BAC 80 μmol + compound 10 μmol
  Calculated activity: 100%
Providencia rettgeri; BAC 80 μmol + compound 20 μmol
  Calculated activity: 100%
Providencia rettgeri; BAC 80 μmol + compound 40 μmol
  Calculated activity: 100%
Providencia rettgeri; BAC 80 μmol + compound 80 μmol
  Calculated activity: 100%
Providencia rettgeri; [2]
  Calculated activity: 100%
Providencia rettgeri; [3]
  Measured activity: 100%
Providencia rettgeri; [4]
  Measured activity: 100%
Providencia rettgeri; [5]
  Measured activity: 100%
Providencia rettgeri; [6]
  Measured activity: 100%
Providencia rettgeri; [7]
  Measured activity: 100%
Providencia rettgeri; [8]
  Measured activity: 100%
Providencia rettgeri; [9]
  Measured activity: 100%
Providencia rettgeri; [10]
  Measured activity: 100%
Providencia rettgeri; [11]
  Measured activity: 100%
Providencia rettgeri; [12]
  Measured activity: 100%
Providencia rettgeri; compound alone 10 μmol
  Measured activity: 0%
Providencia rettgeri; compound alone 20 μmol
  Measured activity: 0%
Providencia rettgeri; compound alone 40 μmol
  Measured activity: 90%
Providencia rettgeri; compound alone 80 μmol
  Measured activity: 100%
Providencia rettgeri; compound alone 160 μmol
  Measured activity: 100%
Sporobolomyces roseus
  Test yeast (21) Sporobolomyces roseus (score): 3
Rhodotorula rubra
  Test yeast (20) Rhodotorula rubra (score): 3
Escherichia coli
  E. coli (growth inhibition score): 3
Pseudomonas aeruginosa
  P. aeruginosa (growth inhibition score): 3
Debaryomyces hansenii
  Test yeast (19) Debaryomyces hansenii (score): 3

## CNCCCN(C)CCCN(C)C(c1ccccc1)c1ccc(-c2ccccc2)cc1 (racemic) [Co. No. 52, (±)-N-[[(1,1′-biphenyl)4-yl]phenylmethyl]-N,N′-dimethyl-N′-[3-(methylamino)propyl]-1,3-propanediamine trihydrochloride]
Sporobolomyces roseus
  Test yeast (21) Sporobolomyces roseus (score): 3
Rhodotorula rubra
  Test yeast (20) Rhodotorula rubra (score): 3
Escherichia coli
  E. coli (growth inhibition score): 3
Pseudomonas aeruginosa
  P. aeruginosa (growth inhibition score): 1
Debaryomyces hansenii
  Test yeast (19) Debaryomyces hansenii (score): 3

## CN(C)CCNCCC(c1ccccc1)c1ccc(-c2ccccc2)cc1 (centres unmarked) [compound 39]
Sporobolomyces roseus
  Test yeast (21) Sporobolomyces roseus (score): 3
Rhodotorula rubra
  Test yeast (20) Rhodotorula rubra (score): 1
Escherichia coli
  E. coli (growth inhibition score): 3
Pseudomonas aeruginosa
  P. aeruginosa (growth inhibition score): 1
Debaryomyces hansenii
  Test yeast (19) Debaryomyces hansenii (score): 3

## Cl.Cl.NC1CCN(CCC(c2ccccc2)c2ccc(-c3ccccc3)cc2)CC1 (centres unmarked) [compound 31]
Sporobolomyces roseus
  Test yeast (21) Sporobolomyces roseus (score): 3
Rhodotorula rubra
  Test yeast (20) Rhodotorula rubra (score): 1
Escherichia coli
  E. coli (growth inhibition score): 3
Pseudomonas aeruginosa
  P. aeruginosa (growth inhibition score): 1
Debaryomyces hansenii
  Test yeast (19) Debaryomyces hansenii (score): 3

## Cl.Cl.Cl.NC1CCN(C2CCN(C(c3ccccc3)c3ccc(-c4ccccc4)cc3)CC2)CC1 (centres unmarked) [compound 49]
Sporobolomyces roseus
  Test yeast (21) Sporobolomyces roseus (score): 3
Rhodotorula rubra
  Test yeast (20) Rhodotorula rubra (score): 2
Escherichia coli
  E. coli (growth inhibition score): 3
Pseudomonas aeruginosa
  P. aeruginosa (growth inhibition score): 1
Debaryomyces hansenii
  Test yeast (19) Debaryomyces hansenii (score): 3

## Cl.Cl.c1ccc(-c2ccc(C(c3ccccc3)C3CCN(C4CCNCC4)CC3)cc2)cc1 (single isomer, unassigned) [compound 22]
Sporobolomyces roseus
  Test yeast (21) Sporobolomyces roseus (score): 3
Rhodotorula rubra
  Test yeast (20) Rhodotorula rubra (score): 1
Escherichia coli
  E. coli (growth inhibition score): 3
Pseudomonas aeruginosa
  P. aeruginosa (growth inhibition score): 1
Debaryomyces hansenii
  Test yeast (19) Debaryomyces hansenii (score): 3

## CN(C)CCCN1CCC(C(c2ccccc2)c2ccc(-c3ccccc3)cc2)CC1.Cl.Cl (centres unmarked) [compound 43]
Sporobolomyces roseus
  Test yeast (21) Sporobolomyces roseus (score): 3
Rhodotorula rubra
  Test yeast (20) Rhodotorula rubra (score): 2
Escherichia coli
  E. coli (growth inhibition score): 1
Pseudomonas aeruginosa
  P. aeruginosa (growth inhibition score): 2
Debaryomyces hansenii
  Test yeast (19) Debaryomyces hansenii (score): 3

## CN(C)CC1CCN(CCC(c2ccccc2)c2ccc(-c3ccccc3)cc2)CC1 (centres unmarked) [compound 33]
Sporobolomyces roseus
  Test yeast (21) Sporobolomyces roseus (score): 3
Rhodotorula rubra
  Test yeast (20) Rhodotorula rubra (score): 3
Escherichia coli
  E. coli (growth inhibition score): 1
Pseudomonas aeruginosa
  P. aeruginosa (growth inhibition score): 1
Debaryomyces hansenii
  Test yeast (19) Debaryomyces hansenii (score): 3

## Cl.Cl.Fc1ccc(-c2ccc(C(c3ccccc3)C3CCN(C4CCNCC4)CC3)cc2)cc1.O (racemic) [Co. No. 7, (±)-4-[[4′-fluoro(1,1′-biphenyl)-4-yl]phenylmethyl](1,4′-bipiperidine)dihydro-chloride.monohydrate]
Sporobolomyces roseus
  Test yeast (21) Sporobolomyces roseus (score): 3
Rhodotorula rubra
  Test yeast (20) Rhodotorula rubra (score): 2
Escherichia coli
  E. coli (growth inhibition score): 3
Pseudomonas aeruginosa
  P. aeruginosa (growth inhibition score): 3
Debaryomyces hansenii
  Test yeast (19) Debaryomyces hansenii (score): 3

## NCC1CCN(CC=C(c2ccccc2)c2ccc(-c3ccccc3)cc2)CC1.O=C(O)C(=O)O.O=C(O)C(=O)O [compound 26]
Sporobolomyces roseus
  Test yeast (21) Sporobolomyces roseus (score): 3
Rhodotorula rubra
  Test yeast (20) Rhodotorula rubra (score): 2
Escherichia coli
  E. coli (growth inhibition score): 3
Pseudomonas aeruginosa
  P. aeruginosa (growth inhibition score): 1
Debaryomyces hansenii
  Test yeast (19) Debaryomyces hansenii (score): 3

## Cl.Cl.NCCCN1CCC(C(c2ccccc2)c2ccc(-c3ccccc3)cc2)CC1.O (centres unmarked) [Co. No. 42]
Providencia rettgeri; BAC 40 μmol + compound 10 μmol
  Calculated activity: 0%
Providencia rettgeri; BAC 40 μmol + compound 20 μmol
  Calculated activity: 0%
Providencia rettgeri; BAC 40 μmol + compound 40 μmol
  Calculated activity: 30%
Providencia rettgeri; BAC 40 μmol + compound 80 μmol
  Calculated activity: 90%
Providencia rettgeri; [1]
  Calculated activity: 100%
Providencia rettgeri; BAC 80 μmol + compound 10 μmol
  Calculated activity: 100%
Providencia rettgeri; BAC 80 μmol + compound 20 μmol
  Calculated activity: 100%
Providencia rettgeri; BAC 80 μmol + compound 40 μmol
  Calculated activity: 100%
Providencia rettgeri; BAC 80 μmol + compound 80 μmol
  Calculated activity: 100%
Providencia rettgeri; [2]
  Calculated activity: 100%
Providencia rettgeri; [3]
  Measured activity: 50%
Providencia rettgeri; [4]
  Measured activity: 50%
Providencia rettgeri; [5]
  Measured activity: 100%
Providencia rettgeri; [6]
  Measured activity: 100%
Providencia rettgeri; [7]
  Measured activity: 100%
Providencia rettgeri; [8]
  Measured activity: 100%
Providencia rettgeri; [9]
  Measured activity: 100%
Providencia rettgeri; [10]
  Measured activity: 100%
Providencia rettgeri; [11]
  Measured activity: 100%
Providencia rettgeri; [12]
  Measured activity: 100%
Providencia rettgeri; compound alone 10 μmol
  Measured activity: 0%
Providencia rettgeri; compound alone 20 μmol
  Measured activity: 0%
Providencia rettgeri; compound alone 40 μmol
  Measured activity: 30%
Providencia rettgeri; compound alone 80 μmol
  Measured activity: 90%
Providencia rettgeri; compound alone 160 μmol
  Measured activity: 100%
Sporobolomyces roseus
  Test yeast (21) Sporobolomyces roseus (score): 3
Rhodotorula rubra
  Test yeast (20) Rhodotorula rubra (score): 3
Escherichia coli
  E. coli (growth inhibition score): 3
Pseudomonas aeruginosa
  P. aeruginosa (growth inhibition score): 3
Debaryomyces hansenii
  Test yeast (19) Debaryomyces hansenii (score): 3

## Cl.Cl.NCC1CCN(CCC(c2ccccc2)c2ccc(-c3ccccc3)cc2)CC1 (centres unmarked) [compound 30]
Sporobolomyces roseus
  Test yeast (21) Sporobolomyces roseus (score): 3
Rhodotorula rubra
  Test yeast (20) Rhodotorula rubra (score): 1
Escherichia coli
  E. coli (growth inhibition score): 3
Pseudomonas aeruginosa
  P. aeruginosa (growth inhibition score): 1
Debaryomyces hansenii
  Test yeast (19) Debaryomyces hansenii (score): 3
